Read-outs that look alike come from different tables or passages of the source. Each block holds one molecule with its values, some of them ahead of it.
Columns and labels:
[1] = target: T1, AnaGlgC (Nostoc sp. PCC 7120 = FACHB-418, UniProt P30521); assay: biochemical
T1 sequence (P30521 1-429): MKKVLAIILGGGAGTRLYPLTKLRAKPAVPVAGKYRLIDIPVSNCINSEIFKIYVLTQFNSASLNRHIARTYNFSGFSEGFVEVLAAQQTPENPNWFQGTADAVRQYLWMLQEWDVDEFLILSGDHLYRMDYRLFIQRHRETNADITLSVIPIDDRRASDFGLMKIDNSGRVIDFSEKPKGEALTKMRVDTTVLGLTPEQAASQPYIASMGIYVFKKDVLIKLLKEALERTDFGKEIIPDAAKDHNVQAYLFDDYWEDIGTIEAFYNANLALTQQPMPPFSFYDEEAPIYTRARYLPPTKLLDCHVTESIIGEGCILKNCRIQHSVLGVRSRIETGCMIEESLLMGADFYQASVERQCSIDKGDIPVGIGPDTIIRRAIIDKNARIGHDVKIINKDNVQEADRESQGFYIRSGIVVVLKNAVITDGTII

[2] = target: T1, AnaGlgC; assay: Malachite Green Pi release with inorganic pyrophosphatase, ADP-Glc synthesis; type: biochemical
[3] = tested on: inMelGlgC; assay: activity assay, ADP-Glc synthesis; type: biochemical, Candidatus Melainabacteria bacterium MEL.A1; details: read-out: I0.5; inhibitor; 10 mM MgCl2; MOPS pH 8.0; 37 °C
[4] = tested on: flMelGlgC; assay: activity assay, ADP-Glc synthesis; type: biochemical, Candidatus Melainabacteria bacterium GWF2_37_15; details: read-out: I0.5; inhibitor; 10 mM MgCl2; MOPS pH 8.0; 37 °C
[5] = tested on: flMelGlgC; details: read-out: S0.5, no effector, 10 mM MgCl2, MOPS pH 8.0, 37 °C
[6] = tested on: inMelGlgC; details: read-out: S0.5, no effector, 10 mM MgCl2, MOPS pH 8.0, 37 °C
[7] = target: flMelGlgC; assay: Malachite Green Pi release with inorganic pyrophosphatase, ADP-Glc synthesis; type: biochemical, Candidatus Melainabacteria bacterium GWF2_37_15; details: read-out: A0.5; allosteric activator; 10 mM MgCl2; MOPS pH 8.0; 37 °C
[8] = target: inMelGlgC; assay: as above; type: biochemical, Candidatus Melainabacteria bacterium MEL.A1; details: read-out: A0.5; allosteric activator; 10 mM MgCl2; MOPS pH 8.0; 37 °C
[9] = target: T1, AnaGlgC; assay: coupled spectrophotometric assay; type: biochemical
[10] = substrate: O=P(O)(O)O[C@H]1O[C@H](CO)[C@@H](O)[C@H](O)[C@H]1O; assay: purified protein; details: no effector, saturating ATP, 10 mM MgCl2, MOPS pH 8.0, 37 °C
[11] = substrate: Nc1ncnc2c1ncn2[C@@H]1O[C@H](COP(=O)(O)OP(=O)(O)OP(=O)(O)O)[C@@H](O)[C@H]1O; assay: purified protein; details: no effector, saturating Glc-1P, 10 mM MgCl2, MOPS pH 8.0, 37 °C
[12] = read-out: A0.5, allosteric activator, 10 mM MgCl2, MOPS pH 8.0, 37 °C

EC50 [1]: 190 ± 90 µM | EC50 [2]: 200 µM
Molecule: O=C(O)[C@H](O)COP(=O)(O)O [3-PGA]

IC50 [3]: 2300 ± 900 µM | IC50 [4]: 1440 ± 80 µM
Molecule: Nc1ncnc2c1ncn2[C@@H]1O[C@H](COP(=O)(O)OP(=O)(O)O)[C@@H](O)[C@H]1O [ADP]

Molecule: Nc1ncnc2c1ncn2[C@@H]1O[C@H](COP(=O)(O)OP(=O)(O)OP(=O)(O)O)[C@@H](O)[C@H]1O [ATP]
Km ([5]; saturating Glc-1P): 340 ± 50 µM | Km ([6]; saturating Glc-1P): 250 ± 10 µM

EC50 [7]: 1700 ± 100 µM | EC50 [2, 12]: 900 ± 100 µM | EC50 [8]: 440 ± 50 µM
Molecule: O=P(O)(O)OC[C@H]1OC(O)(CO)[C@@H](O)[C@@H]1O (stereo partly shown) [Fru-6P]

Km ([5]; saturating ATP): 2100 ± 200 µM | Km ([6]; saturating ATP): 320 ± 30 µM
Molecule: O=P(O)(O)O[C@H]1O[C@H](CO)[C@@H](O)[C@H](O)[C@H]1O [Glc-1P]

EC50 [7]: ~300 µM | EC50 [2, 12]: 1450 ± 160 µM | EC50 [8]: ~300 µM
Molecule: O=P(O)(O)OC[C@H]1OC(O)[C@H](O)[C@@H](O)[C@@H]1O (stereo partly shown) [Glc-6P]

EC50 [7]: 450 ± 40 µM | EC50 [8]: 520 ± 20 µM
Molecule: O=P(O)(O)OC[C@H]1OC(O)[C@@H](O)[C@@H](O)[C@@H]1O (stereo partly shown) [Man-6P]

IC50 [9]: 90 µM
Molecule: O=P(O)(O)O [Pi]

B1: AnaGlgC (Nostoc sp. PCC 7120 = FACHB-418) (protein)
chain: MKKVLAIILGGGAGTRLYPLTKLRAKPAVPVAGKYRLIDIPVSNCINSEIFKIYVLTQFNSASLNRHIARTYNFSGFSEGFVEVLAAQQTPENPNWFQGTADAVRQYLWMLQEWDVDEFLILSGDHLYRMDYRLFIQRHRETNADITLSVIPIDDRRASDFGLMKIDNSGRVIDFSEKPKGEALTKMRVDTTVLGLTPEQAASQPYIASMGIYVFKKDVLIKLLKEALERTDFGKEIIPDAAKDHNVQAYLFDDYWEDIGTIEAFYNANLALTQQPMPPFSFYDEEAPIYTRARYLPPTKLLDCHVTESIIGEGCILKNCRIQHSVLGVRSRIETGCMIEESLLMGADFYQASVERQCSIDKGDIPVGIGPDTIIRRAIIDKNARIGHDVKIINKDNVQEADRESQGFYIRSGIVVVLKNAVITDGTII
K0.5 [10]: 0.08 ± 0.02 mM | K0.5 [11]: 0.40 ± 0.04 mM
